Measured values reported in US20250353855A1, “HETEROCYCLIC AND HETEROARYL COMPOUNDS FOR TREATING HUNTINGTON'S DISEASE” (PTC THERAPEUTICS, INC., priority 2022, published 2025).

What follows are compounds tested on Endogenous Huntingtin Protein (assay: Endogenous Huntingtin Protein Assay (ELISA-based MSD electrochemiluminescence)). Conditions: MSD plates coated with MW1 (expanded polyglutamine) or MAB2166 capture antibody; lysates; read-out: IC50.
Type: cell-based
Method in brief: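 Electrochemiluminescence sandwich ELISA for endogenous huntingtin: capture with MW1 (expanded polyglutamine) or MAB2166 antibody at 1 μg/mL, samples incubated overnight at 4° C. Detection with rabbit monoclonal #5656S then goat anti-rabbit SULFO-TAG antibody (each 0.25 μg/mL, 1 h room temperature), read on MSD imager.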
`CC1(C)C[C@H](n2ccc3cc(-c4cc5cc(F)cnc5cc4O)nnc32)[C@H](F)C(C)(C)N1` [Cpd 94, 3-fluoro-6-{7-[(3S,4S)-3-fluoro-2,2,6,6-tetramethylpiperidin-4-yl]-7H-pyrrolo[2,3-c]pyridazin-3-yl}quinolin-7-ol] was tested, and the IC50 was < 100 nM.
Work on `CO/N=C1/CCc2cc(-c3cc4c(nn3)N([C@H]3CCNC5(CC5)C3)CC4)c(O)cc21` [Cpd 60, (3Z)-6-{7-[(7S)-4-azaspiro[2.5]octan-7-yl]-6,7-dihydro-5H-pyrrolo[2,3-c]pyridazin-3-yl}-3-(methoxyimino)-2,3-dihydro-1H-inden-5-ol] yielded an IC50 of 500 to 1000 nM.
For `Cc1nc2cc(-c3cc4c(nn3)N([C@H]3CC(C)(C)NC(C)(C)[C@H]3F)CC4)c(O)c(F)c2o1` [Cpd 103, 7-fluoro-5-{7-[(3S,4S)-3-fluoro-2,2,6,6-tetramethylpiperidin-4-yl]-6,7-dihydro-5H-pyrrolo[2,3-c]pyridazin-3-yl}-2-methyl-1,3-benzoxazol-6-ol], the IC50 was < 100 nM.
In the case of `Cn1nnc2cc(-c3cc4c(nn3)N([C@H]3CC(C)(C)NC(C)(C)[C@H]3F)CC4)c(O)cc21` [Cpd 50, 5-{7-[(3S,4S)-3-fluoro-2,2,6,6-tetramethylpiperidin-4-yl]-6,7-dihydro-5H-pyrrolo[2,3-c]pyridazin-3-yl}-1-methyl-1H-benzotriazol-6-ol], the IC50 is reported as < 100 nM.
In the case of `Cc1cnc2cc(O)c(-c3cc4c(nn3)N([C@H]3CC(C)(C)NC(C)(C)[C@H]3F)CC4)cc2c1` [Cpd 81, 6-{7-[(3S,4S)-3-fluoro-2,2,6,6-tetramethylpiperidin-4-yl]-6,7-dihydro-5H-pyrrolo[2,3-c]pyridazin-3-yl}-3-methylquinolin-7-ol], the IC50 is reported as < 100 nM.
`Cc1ccc2cc(O)c(-c3cc4ccn([C@H]5CC(C)(C)NC(C)(C)[C@H]5F)c4nn3)cc2n1` [Cpd 31, 7-{7-[(3S,4S)-3-fluoro-2,2,6,6-tetramethylpiperidin-4-yl]-7H-pyrrolo[2,3-c]pyridazin-3-yl}-2-methylquinolin-6-ol] was tested, and the IC50 was < 100 nM.
`Cc1nc2cc(O)c(-c3cc4ncn([C@H]5C[C@@H]6CC[C@@H](N6)[C@H]5F)c4nn3)cc2s1` (single isomer, unassigned) [Cpd 9, 6-{7-[(1R,2R,3S,5S)-2-fluoro-8-azabicyclo[3.2.1]octan-3-yl]-7H-imidazo[4,5-c]pyridazin-3-yl}-2-methyl-1,3-benzothiazol-5-ol or 6-{7-[(1S,2S,3R,5R)-2-fluoro-8-azabicyclo[3.2.1]octan-3-yl]-7H-imidazo[4,5-c]pyridazin-3-yl}-2-methyl-1,3-benzothiazol-5-ol] was tested, and the IC50 was < 100 nM.
With `Cc1ncc2cc(O)c(-c3cc4c(nn3)N([C@H]3CC(C)(C)NC(C)(C)[C@H]3F)CC4)cc2n1` [Cpd 87, 7-{7-[(3S,4S)-3-fluoro-2,2,6,6-tetramethylpiperidin-4-yl]-6,7-dihydro-5H-pyrrolo[2,3-c]pyridazin-3-yl}-2-methylquinazolin-6-ol] the IC50 was < 100 nM.
In the case of `Cc1cnc2cc(-c3cc4ccn([C@H]5CC(C)(C)NC(C)(C)[C@H]5F)c4nn3)c(O)cc2c1` [Cpd 30, 7-{7-[(3S,4S)-3-fluoro-2,2,6,6-tetramethylpiperidin-4-yl]-7H-pyrrolo[2,3-c]pyridazin-3-yl}-3-methylquinolin-6-ol], the IC50 is reported as < 100 nM.
With `CCc1nc2cc(-c3cc4ccn([C@H]5CC(C)(C)NC(C)(C)[C@H]5F)c4nn3)c(O)cc2o1` [Cpd 13, 2-ethyl-5-{7-[(3S,4S)-3-fluoro-2,2,6,6-tetramethylpiperidin-4-yl]-7H-pyrrolo[2,3-c]pyridazin-3-yl}-1,3-benzoxazol-6-ol] the IC50 was < 100 nM.
